Patent US6613797B2, “Xanthone analogs for treating infectious diseases and complexation of heme and porphyrins” (Interlab, Inc., priority 1999, dated 2003)
In brackets after ≈: the same amount, converted by molar mass. Where two headings read alike, the source gives them in different places. Blank lines part the entries; values can stand above or below the compound they belong to.

Columns and labels:
[1] = system: intracellular amastigotes of Leishmania mexicana M379; assay: intracellular amastigote assay in infected murine macrophages; type: cell-based
Experimental: Bone-marrow-derived macrophages (BALB/c) were cultured with L-cell-conditioned medium for 5-7 days at 35° C. After this period of incubation, mature macrophages were transferred to Labtek 4-chamber slides containing DMEM (Dulbecco's Modified Eagle's Medium) and 10% fetal calf serum. 50,000 cells were seeded in each chamber and allowed to attach overnight at 37° C. in a humidified incubator flushed with 5% CO2. On the next day the macrophages were infected at an MOI (Multiplicity of Infection) of 10:1 with stationary promastigotes of L. mexicana. After twenty-four hours, the medium was removed and fresh medium was added containing various drug concentrations (0-5 μM). Following incubation for an additional forty-eight hours, one set of slides were fixed in methanol, dried, and stained with Giemsa stain. Fresh medium and drug were added to a parallel set of chamber slides and incubated for another 48 hours before staining. […] Microscopic inspection permitted determination of % of infected macrophages and the number of amastigotes per 100 macrophages. The IC50 value is that concentration of drug that reduces the amastigote number by 50% relative to drug-free controls. Results also were obtained in parallel fashion with macrophages.
Intracellular amastigote studies. […] Because the amastigote stage is the only relevant clinical form of the parasites, we examined the activity of the nitrogenated xanthones against the heme-auxotrophic, intracellular amastigote form of L. mexicana. Stationary promastigotes of L. mexicana M379 rapidly invaded murine peritoneal macrophages obtained from BALB/c mice and incubated at 35° C. producing heavily burdened cells with 10 to 50 amastigotes per macrophage within 24 hours. An experiment was performed to investigate the ability of selected xanthones to reduce the number of intracellular amastigotes using this model. The IC50 value is that concentration of drug required to reduce the intracellular parasite burden by 50% relative to a drug-free control chamber. We tested the xanthone series against amastigote-infected murine peritoneal macrophages. Macrophages were seeded into Labtek chamber slides (25,000 per well/8 chamber slide) and allowed to incubate overnight in Dulbecco's Modified Eagle Medium (DMEM) supplemental with 10% fetal calf serum. On the next day the cells were infected with L. mexicana promastigotes at an MOI of 5:1 and then incubated for 24 hours at 35° C. After incubation, the monolayers were washed with buffer and medium containing varying concentrations of each xanthone (0 to 10 μM) was added to each chamber. After 48 hours of incubation (i.e., Day 3 of the experiment) one set of slides was removed, fixed with methanol, and stained with Giemsa. For another set of slides, we replenished the culture medium, added fresh drug to each well as appropriate, and then incubated the chambers for another 48 hours before staining with Giemsa. IC50 values were then averaged for 3 separate experiments and the results are presented in Table 4 and graphically in FIG. 7. […] The IC50 values recorded for C5 and C6 exposure for 96 hours of treatment were 6 nM and 2 nM.

[2] = system: Plasmodium falciparum D6 strain; assay: in vitro anti-malarial activity, [3H]-ethanolamine incorporation method; type: cell-based
Experimental: Cultures were maintained at 37° C. in a gas mixture of 5% oxygen, 5% CO2, and 90% nitrogen.
[^3H]-ethanolamine was obtained from American Radiolabeled Chemicals, Inc., St. Louis, Mo. Experiments were conducted in 96 well plates in a total volume of 200 μl at a final red blood cell concentration of 2% (v/v). An initial parasitemia of 0.2 to 0.5% was attained by addition of normal uninfected red cells. Radiolabeled ethanolamine was added after 48 hours of incubation and the experiment was terminated after 72 hours by collecting the cells onto glass fiber filters with an automated multiwell harvester.
Stock solutions of the various Formula X1 compounds were dissolved in DMSO at a concentration of 1 mM and diluted in complete medium (including 10% human serum) to provide 10X stock concentrations in the range of 1 to 10,000 nM.

[3] = system: Leishmania donovani; assay: anti-Leishmania activity, promastigote radiolabeled thymidine uptake assay; type: cell-based
Experimental: Leishmania donovani was cultivated in Schneider's medium (Gibco, Grand Island, N.Y.) according to the methods described by Grogl et al. (1992). The in vitro susceptibility of L. donovani to Formula X1 compounds was determined using the radiolabeled thymidine uptake assay essentially as described by Grogl et al. (1992). Briefly, promastigotes were cultivated at 25° C. in Schneider's medium supplemented with 20% inactivated fetal calf serum and 100 μg/mL of gentamicin. Cells were maintained in log phase by seeding at 1×10^6/mL with subculturing when cultured densities approached 4×10^7/mL before reaching their maximal density. For the assay, early log phase promastigotes were counted on a hemacytometer and resuspended at a concentration of 1-2×10^6 cell/mL in assay media (Schneider's medium plus 10% fetal bovine serum). Ten-fold serial dilutions of each test compound were prepared as described above and added to 180 μL of the parasite suspension. After incubation for 24 hours at 25° C., methyl-^3H-thymidine was added to each sample for a final concentration of 1-2 μCi per well. Each sample was then incubated for an additional 18 hours prior to harvesting. After this incubation time, each sample was aspirated onto a filter mat, washed thoroughly with deionized water, dried and then counted in a scintillation counter with scintillation cocktail. […]

[4] = in vitro heme aggregation (polymerization) assay; type: biochemical
Experimental: Heme polymerization was carried out in 0.02 M phosphate buffer, pH 5.2 at 37° C. in the absence of protenis. A 10 mM stock solution of hemin chloride in 0.1 M NaOH wa prepared freshly and incuated at 37° C. for at least 1 hour to effect complete dissolution. Xanthones were dissolved in dimethylformamide at 10 mM and diluted into 10 ml of pre-warmed phosphate solution to a final concentraion of 25 μm. […] 25 μl of dimethylformaide wa added to the control smample. After 7, 30, 60, 120 and 190 minutes of incugation at 37° C., a 1 ml aliquot was withdraqwn, tranferred into an Eppendorf tube, and centrifugted at 14,000 g for 2 minutes at room temperature to pellet the precipitate. The soluble fraction was then transferred to a semi-microcuvette (polymethyacrylate, VER), and its absoprtion was measured at 360 nm against a blank of the test compound in buffer.
The reactions were allowed to proceed for 2 hours in a 37° C. waterbath. After incubation, the polymer was pelleted as described above and the absorption (360 nm) of each soluble fraction was measured against a blank containing the drug alone in buffer. The IC50 values were determined by nonlinear regression analysis of the dose-response curves of percent inhibition of heme polymerization vs. drug concentration.

[5] = system: Candida albicans; assay: anti-Candida activity, MIC by visual inspection; type: cell-based; settings: conversion of the MIC, read-out: IC50 corresponding to the MIC against Candida albicans
Experimental: The minimum inhibitory concentration (MIC) of formula X1 compounds against a clinical isolate of Candida albicans was determined using the following method. […] The determination of this concentration is made by visual inspection; there is no visible growth in a tube containing the MIC of the formula X1 compound whereas visible growth is present in tubes containing sub-MIC concentrations of the compound.
Candida albicans was grown to midlog-phase in Luria-Bertani broth (10 grams Bacto-tryptone, 5 grams Bacto-yeast extract and 10 grams NaCl per liter) and then inoculated into sterile test tubes containing LB broth to an initial density of 10^3/ml. The formula X1 compound to be tested is dissolved in dimethylsulfoxide (DMSO) at a concentration of 1 mM and added to each tube at serial dilutions (1 μM, 10 μM, 25 μM, 50 μM, 100 μM and 0 μM). The tubes are incubated at 35° C. for 15-18 hours and then visually inspected.

[6] = system: P. falciparum W2 strain; assay: antimalarial activity against multidrug resistant W2 strain; type: cell-based, Plasmodium falciparum
Experimental: A decision was made to retain the oxygen atom (a conjugatively electron-donating species) as a bridge for an R-group containing the protonatable nitrogen. […] For comparative purposes, the straight-chain di-substituted series from C2 to C8 (i.e., excepting C7), each with a terminal diethylamino group was prepared. Shown in Table 4 is the remarkable relationship between chain length and antimalarial activity within the series . . . and the extraordinary potency of the C5 (3,6-bis-ω-diethylaminoamyloxyxanthone) and C6 (3,6-bis-ω-diethylaminohexyloxyxanthone) congeners.

[7] = system: malaria Plasmodium parasites; settings: rufigallol combined with exifone; cited from earlier work
[8] = system: Leishmania donovani; settings: Table 2; literature reported value; cited from earlier work
[9] = Leishmania mexicana, Macrophage, read-out: IC50, anti-leishmanial activity
[10] = Leishmania mexicana, Macrophage, intracellular amastigote method, read-out: IC50, anti-leishmanial activity
[11] = Plasmodium falciparum, D6, Table 1, reproduced from U.S. Pat. No. 5,977,077, read-out: IC50, μM vs. Plasmodium
[12] = Leishmania mexicana, Macrophage, 48 h, read-out: IC50 μM** L. mexicana
[13] = Plasmodium falciparum, D6, Table 4, average of 2 experiments in triplicate, 72 hour assay, read-out: IC50 μM* P. falciparum D6
[14] = Table 3, 25 μM heme, pH 5.2, 37° C., 2 hours, average of at least two determinations, read-out: IC50, μM in vitro heme polymerization
[15] = Plasmodium falciparum, D6, Table 3, read-out: IC50 μM, P. falciparum clone D6
[16] = 96 hours of treatment, peritoneal macrophages, read-out: IC50, L. mexicana amastigotes
[17] = Table 4, 48 hours of drug exposure, reduction of amastigote burden by 50%, read-out: IC50 μM** L. mexicana
[18] = P. falciparum D6, read-out: IC50, anti-malarial activity
[19] = Table 4, average of 2 experiments in triplicate, 72 hour assay, read-out: IC50 μM* P. falciparum D6

Compound: COc1c(O)cc2oc3cc(O)c(CC=C(C)C)c(O)c3c(=O)c2c1CC=C(C)C [Mangostin, reference compound]
IC50 [1, 9]: 0.41 µg/mL | IC50 [1, 10]: 1 µM | IC50 [2, 11]: 5 µM | IC50 ([3]; read-out: IC50 mg/ml for Leishmania): 0.00041 mg/mL (≈ 0.999 µM)

Compound: CCN(CC)CCCCOc1ccc2c(=O)c3ccc(OCCCCN(CC)CC)cc3oc2c1 [36-DEAB-X, 3,6-bis-δ-(N,N-diethylamino)butoxy-xanthone]
IC50 [1, 12]: 0.2 µM | IC50 [2, 13]: 0.65 µM

IC50 [4, 14]: 1.4 µM | IC50 [2, 15]: 0.1 µM | IC50 [5]: ~10 µg/mL (≈ 34.2 µM)
Compound: O=c1c2cc(O)c(O)c(O)c2oc2c(O)c(O)c(O)cc12 [2,3,4,5,6,7-hexahydroxyxanthone]

Compound: CCN(CC)CCCCCCOc1ccc2c(=O)c3ccc(OCCCCCCN(CC)CC)cc3oc2c1 [36-DEAHexyl-X, 3,6-bis-(N,N-diethylamino)-hexyloxy-xanthone]
IC50 [1, 16]: 0.002 µM | IC50 [1, 17]: 0.02 µM | IC50 [2, 18]: ~0.1 µM | IC50 [2, 19]: 0.075 µM | degree of potency against W2 compared with D6 [6]: the same

Compound: CCN(CC)CCCCCOc1ccc2c(=O)c3ccc(OCCCCCN(CC)CC)cc3oc2c1 [36-DEAAmyl-X, 3,6-bis-ε-(N,N-diethylamino)-amyloxy-xanthone]
IC50 [1, 16]: 0.006 µM | IC50 [1, 17]: 0.06 µM | IC50 [2, 18]: ~0.1 µM | IC50 [2, 19]: 0.1 µM | degree of potency against W2 compared with D6 [6]: the same

IC50 [2, 11]: 50 µM | IC50 ([3]; Table 2, read-out: IC50 mg/ml for Leishmania): > 0.05 mg/mL
Compound: O=c1c2cc(O)c(O)cc2oc2cc(O)c([C@@H]3O[C@H](CO)[C@@H](O)[C@H](O)[C@H]3O)c(O)c12 [Mangiferin, reference compound]

Compound: O=C1c2cc(O)c(O)c(O)c2C(=O)c2cc(O)c(O)c(O)c21 [rufigallol, 1,2,3,5,6,7,-hexahydroxy-9,10-anthraquinone]
increase in potency against malaria Plasmodium parasites [7]: ~350 fold

Compound: O=c1c2ccc(O)c(O)c2oc2c(O)c(O)c(O)cc12 [2,3,4,5,6-pentahydroxyxanthone]
IC50 [4, 14]: 1.2 µM | IC50 ([4]; text b143, read-out: IC50, inhibition of heme polymerization): 1.2 µM | IC50 [1, 9]: ~1 µg/mL | IC50 [1, 10]: ~5 µM | IC50 [2, 15]: 0.4 µM | IC50 [5]: ~10 µg/mL (≈ 36.2 µM)

Compound: Stibogluconate [Stibogluconate [Sodium Antimony (V) Gluconate]]
IC50 mg/ml for Leishmania [8]: 0.1 to 1.0 literature reported value mg/ml

Compound: CCN(CC)CCCOc1ccc2c(=O)c3ccc(OCCCN(CC)CC)cc3oc2c1 [36-DEAP-X, 3,6-bis-γ-(N,N-diethylamino)propoxy-xanthone]
IC50 [1, 12]: 0.5 µM | IC50 [2, 13]: 1.5 µM

Compound: CCN(CC)CCOc1ccc2c(=O)c3ccc(OCCN(CC)CC)cc3oc2c1 [36-DEAE-X, 3,6-bis-β-(N,N-diethylamino)ethoxy-xanthone]
IC50 [1, 12]: ~1.25 µM | IC50 [2, 13]: 2.2 µM
